For ten compounds, IC50 results are on record in patent US20230113609A1, “SSTR5 ANTAGONISTS” (Kallyope, Inc., priority 2019, published 2023).

A word on the IC50: it is the point on the concentration scale where inhibition reaches its midpoint. A low value points to greater potency in that assay.

Some results are limits rather than exact numbers.

This assay deals with T1, human SSTR5 (Homo sapiens, UniProt P35346).
T1 construct: expressed in transfected cells
T1 sequence (P35346 whole entry): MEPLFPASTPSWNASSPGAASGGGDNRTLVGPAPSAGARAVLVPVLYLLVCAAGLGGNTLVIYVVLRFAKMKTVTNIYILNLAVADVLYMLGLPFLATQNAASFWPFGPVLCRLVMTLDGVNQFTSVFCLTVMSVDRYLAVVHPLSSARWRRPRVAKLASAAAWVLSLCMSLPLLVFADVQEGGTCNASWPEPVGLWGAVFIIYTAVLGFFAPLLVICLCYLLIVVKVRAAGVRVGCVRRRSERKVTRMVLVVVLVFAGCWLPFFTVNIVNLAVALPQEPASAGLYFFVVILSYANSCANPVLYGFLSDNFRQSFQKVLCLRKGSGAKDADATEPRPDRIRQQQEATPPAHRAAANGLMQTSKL
The experiment in a line: Inositol phosphate accumulation assay (IP1 HTRF, antagonist mode). The assay is classed as cell-based. The note with it: CHO-K1 cells co-expressing human SSTR5 with Gqi5, SST28 agonist at concentration generating 90% of full activation. From the text: CHO-K1 cells stably co-expressing human SSTR5 with Gqi5 were developed using Jump-In technology from Thermo-Fisher. Gqi5 is the mouse G alpha q protein, that was modified to interact with Gi-coupled GPCRs as described previously (Coward, P.; Chan, S. D.; Wada, H. G.; Humphries, G. M.; Conklin, B. R. Chimeric G proteins Allow a High-Throughput Signaling Assay of Gi-Coupled Receptors. Anal Biochem. 1999, 270(2),242-248).
Co-expression of Gqi5 with SSTR5 allowed monitoring of SSTR5 activity by following IP1 accumulation. The assay was performed in a 384-well plate format using the IP1 assay kit from Cis-Bio in an antagonist mode, i.e., pre-incubation with antagonist following by receptor activation by agonist at a concentration generating 90% of full activation. Frozen cells expressing human SSTR5 were thawed, washed, and then plated in DMEM supplemented with 10% FBS and non-essential amino acids. 40 μL of 2.5×10^5 cells/mL were plated on a Poly D-Lysine coated 384-well white plate. The cells were then incubated for 16 hr. at 37° C/5% CO2. After 16 hour the medium was removed, and 10 μL of stimulation buffer was added to the cells. Test compounds were dissolved in DMSO at concentrations 2000-fold that of the final assay concentrations. 7.5 nLcompound solutions were transferred to the cell plates using a Labcyte Echo® acoustic liquid handler. The plates were then incubated for 15 minutes at 37° C/5%CO2. After the first incubation, 5 μL of 30 nM SST28 were added to the cells, and the cells were incubated for 90 minutes at 37° C/5%CO2. 5 μL of detection buffer (prepared as described in the IP-1 kit) was added to each well, and the plates were incubated at RT for 1 hour.
TR-FRET was measured using a ClarioSTAR plate reader, calculating the ratio between emissions at 665 nm and 620 nm (HTRF ratio). The HTRF ratio for positive (Max) and negative (Min) controls were used to normalize HTRF data and generate values for % inhibition. IC50 and maximal inhibition values were determined using a standard 4-parameter fit.
On the technique in general: Time-resolved FRET reads energy transfer from a long-lived donor to a nearby acceptor.
As for `CCOc1cc(CN2CCC3(CC2)CN(c2ccc(C(=O)N[C@@H](CC(=O)O)C(=O)O)cc2)C(=O)O3)cc(OCC)c1-c1ccc(F)cc1` [Example 9, (4-(8-((2,6-diethoxy-4′-fluoro-[1,1′-biphenyl]-4-yl)methyl)-2-oxo-1-oxa-3,8-diazaspiro[4.5]decan-3-yl)benzoyl)-L-aspartic acid], the IC50 lay within 100 to 1000 nM.
With `CCOc1cc(S(C)(=O)=O)c(C2CC2)cc1CN1CCC2(CC1)CN(c1ccc(S(=O)(=O)N(Cc3ccc(OC)cc3)Cc3ccc(OC)cc3)cc1)C(=O)N2` [compound 86, 4-[8-[(5-cyclopropyl-2-ethoxy-4-methylsulfonyl-phenyl)methyl]-2-oxo-1,3,8-triazaspiro[4.5]decan-3-yl]-N,N-bis[(4-methoxyphenyl)methyl]benzenesulfonamide] the figure was no more than 100 nM.
The figure for `CCOc1cc(-c2ccc(F)cc2)c(C2CC2)cc1CN1CCC2(CC1)CN(c1ccc(C(=O)NCCCNC(N)=O)cc1)C(=O)O2` [Example 62, 4-(8-((2-cyclopropyl-5-ethoxy-4′-fluoro-[1,1′-biphenyl]-4-yl)methyl)-2-oxo-1-oxa-3,8-diazaspiro[4.5]decan-3-yl)-N-(3-ureidopropyl)benzamide] is no more than 100 nM.
The figure for `CCOc1cc(-c2ccc(F)cc2)c(C2CC2)cc1CN1CCC2(CC1)CN(c1ccc(C(=O)NCCCS(=O)(=O)O)cc1)C(=O)N2` [Example 66, 3-(4-(8-((2-cyclopropyl-5-ethoxy-4′-fluoro-[1,1′-biphenyl]-4-yl)methyl)-2-oxo-1,3,8-triazaspiro[4.5]decan-3-yl)benzamido)propane-1-sulfonic acid] is no more than 100 nM; for `CCOc1cc(C(=O)OC)c(C2CC2)cc1CN1CCC2(CC1)CC(=O)N(c1ccc(C(=O)NCCS(=O)(=O)O)cc1)C2` [Example 29, 2-(4-(8-(5-cyclopropyl-2-ethoxy-4-(methoxycarbonyl)benzyl)-3-oxo-2,8-diazaspiro[4.5]decan-2-yl)benzamido)ethane-1-sulfonic acid] it is 100 to 1000 nM; for `CCOc1cc(-c2ccc(F)cc2)c(C2CC2)cc1CN1CCC2(CC1)CN(c1ccc(C(=O)NCCOCCO)cc1)S(=O)(=O)N2` [compound 87, 4-(8-((2-cyclopropyl-5-ethoxy-4′-fluoro-[1,1′-biphenyl]-4-yl)methyl)-2,2-dioxido-2-thia-1,3,8-triazaspiro [4.5]decan-3-yl)-N-(2-(2-hydroxyethoxy)ethyl)benzamide] it is no more than 100 nM.
As for `CCOc1cc(C(=O)OC)c(C2CC2)cc1CN1CCC2(CC1)CC(=O)N(c1ccc(C(=O)NCCN3CCNC3=O)cc1)C2` [Example 40, methyl 2-cyclopropyl-5-ethoxy-4-((3-oxo-2-(4-((2-(2-oxoimidazolidin-1-yl)ethyl)carbamoyl)phenyl)-2,8-diazaspiro[4.5]decan-8-yl)methyl)benzoate], the IC50 lay in the range of 100 to 1000 nM.
The figure for `CCOc1cc(C(=O)OC)c(C2CC2)cc1CN1CCC2(CC1)CN(c1ccc(C(=O)NC[C@H](O)[C@@H](O)[C@H](O)[C@H](O)CO)cc1)C(=O)O2` [Example 54, methyl 2-cyclopropyl-5-ethoxy-4-((2-oxo-3-(4-(((2S,3R,4R,5R)-2,3,4,5,6-pentahydroxyhexyl)carbamoyl)phenyl)-1-oxa-3,8-diazaspiro[4.5]decan-8-yl)methyl)benzoate] is no more than 100 nM.
`CCOc1cc(-c2ccc(F)cc2)c(C2CC2)cc1CN1CCC2(CC1)CN(C13CC(C(=O)NCCOCCO)(C1)C3)C(=O)O2` [compound 92, 3-(8-((2-cyclopropyl-5-ethoxy-4′-fluoro-[1,1′-biphenyl]-4-yl)methyl)-2-oxo-1-oxa-3,8-diazaspiro [4.5]decan-3-yl)-N-(2-(2-hydroxyethoxy)ethyl)bicyclo [1.1.1] pentane-1-carboxamide] showed an IC50 of no more than 100 nM.
With `CCOc1cc(C(=O)OC)c(C2CC2)cc1CN1CCC2(CC1)CC(=O)N(c1ccc(C(=O)NCCC[N+](C)(C)C)cc1)C2` [Example 28, 3-(4-(8-(5-cyclopropyl-2-ethoxy-4-(methoxycarbonyl)benzyl)-3-oxo-2,8-diazaspiro[4.5]decan-2-yl)benzamido)-N,N,N-trimethylpropan-1-aminium] the figure was greater than 5000 nM.
